Assay results as given in patent US6933315B2, “Derivatives of isoindigo, indigo and indirubin and methods of treating cancer” (priority 2001, dated 2005).
Like-named read-outs stand apart in the source and are kept apart here.

Legend:
[1] = tested on: human cancer cell lines; experiment: Growth inhibition by MTT, all tested human cancer cell lines; type: cell-based; details: Homo sapiens, 72 h, read-out: IC50, growth inhibitory effects on all tested human cancer cell lines, range over breast, colon, prostate lines, three day exposure
Protocol: (§1) Growth inhibitory effects of NATURA and other agents on human cancer cells were determined by standard MTT (3-(4,5-dimethylthiazol-2-yl)-2,5-diphenyltetrazolium bromide Test) as described previously. Briefly, cancer cells grown exponentially were aliquoted into 96-well plates at a density of 5000 cells/200 μl per well in RPMI 1640 medium containing 10% FBS overnight. The cells in the plates were then exposed to series of dilution of indicated agent. After 72 h of incubation, 100 μl of the medium was removed from each of the wells and 50 μl of a 1 mg/ml solution of 3-(4,5-dimethylthiazol-2-yl)-2,5-diphenyltetrazolium bromide (MTT) was added to each well and the cells were incubated for additional 4 h. 200 μl of solution of 0.04 N HCl-isopropanol was added to each well to dissolve the black fromazan participates, and absorbance at 540 nm was measured on a 96-Well.

[2] = tested on: cyclin D1; experiment: Cyclin D1 protein level by Western blot in HUVEC cells; type: cell-based, human; details: 24 hrs; for cyclin D1 protein: 15 μM; for expression of cyclin D1: 5.0 and 15 μM
Protocol: Meisoindigo and NATURA also significant inhibit expression of cyclin D1 in HUVEC cells. Exponentially growing HUVEC cells were exposed to 5.0 and 15 μM of Meisoindigo and NATURA, 24 hrs after the exposures, the cells were harvested, washed, and total proteins extracted for Western blot analysis using a monoclonal antibody specific against cyclin D1 (Dako). […] As a result, phosphorylation of a tumor suppressor protein Rb, a native substrate of cyclin D1 mediated cdks, was diminished (data not shown).
HUVEC cells grown exponentially were treated for 24 hrs with […] of Meisoindigo and NATURA. The cells were harvested, washed, and total proteins extracted for Western blot analysis as previously described using antibodies specifically against cyclin D1 (panel A), and b-actin (equal loading control, panel B), and detected by ECL detection kit (Amersham). The levels of cyclin D1 from Panel A were quantitated by an imagine densitometor and normalized by b-action (Panel C).

[3] = tested on: Walker 256; experiment: Anticancer activity against Walker 256 sarcoma
Protocol: Anticancer activity against Walker 256: Wistar rats with body weights between 50 to 55 grams, were randomly divided into several groups, ten of each, respectively. Approximately 2×10^6 of the Walker sarcoma cells were transplanted into a Wistar rat. Twenty-four hours after the transplantation, equal molar dosage (0.384 mM/kg) of NATURA or other sugar derivatives were given orally for 10 days. The animals in the control group were given 0.1 ml saline (drug vehicle, negative control) for the same periods of time as treated group. Twenty-four hours after the last administration, the animals were sacrificed and tumors were removed and weighed.
Briefly, C57 mice, body weight between 18 to 22 grams, and rat, body weight between 50 to 55 grams, were randomly divided into several groups, ten of each, respectively. Approximately 2×10^6 of Lewis cancer cells or Walker sarcoma cells were transplanted into mice or rat. […] The animals in the control group were given 0.1 ml saline (drug vehicle, negative control) for the same periods of time as treated group. The animals at end of the treatment were sacrificed and tumors were removed and weighed.
In order to assess the anticancer activities of NATURA and other sugar derivatives, Wistard rats transplanted with W256 were given the same molar of the tested compounds (0.384 mM/kg) for the same period of time (10 days).

[4] = tested on: DU145; experiment: Growth inhibition by MTT, DU145 prostate cancer cells; type: cell-based, Human; details: Homo sapiens, DU-145; MTT, 72 h exposure; read-out: IC50 DU145
Protocol: as §1

[5] = tested on: PC-3; experiment: Growth inhibition by MTT, PC-3 prostate cancer cells; type: cell-based, Human; details: Homo sapiens, PC-3; MTT, 72 h exposure; read-out: IC50 PC-3
Protocol: as §1

[6] = tested on: SKBR-3; experiment: Growth inhibition by MTT, SKBR-3 breast cancer cells; type: cell-based, Human; details: Homo sapiens, read-out: IC50 SKBR-3
Protocol: as §1

[7] = tested on: LOVO; experiment: Growth inhibition by MTT, LOVO colon cancer cells; type: cell-based, Human; details: Homo sapiens, LoVo; MTT, 72 h exposure; read-out: IC50 LOVO
Protocol: as §1

[8] = tested on: cdk4/6; experiment: cdk4/6 activity immuno-precipitated from treated LNCaP cells; type: cell-based, Human
Protocol: (§2) Assay for cyclin dependent kinase activity: HUVEC and LNCaP cells were cultured in EMB (endothelial cell basal medium) and RPMI 1640 containing 10% FBS, respectively. The cells grown exponentially were exposed to indicated concentrations of meisoindigo or NATURA for 24 hr. The cells were harvested, washed, and total proteins extracted as described previously. One hundred μg of the proteins were immuno-precipitated using antibodies against cdk2, cdk4/6, PKC, ERK2 or cyclin D1 overnight at 4° C. in the presence of a cocktail of protease inhibitors. The immuno-precipitates were washed 4 times with protein extraction buffer and once with kinase assay buffer, and reacted with 75 μg/ml histone H1 in the presence of [γ-^32P]-ATP (2.5 μCi/10 μM). The phosphorylated histone H1 (represent cdk activity) was measured by scintillation counting or by SDS-polyacrylaimde gel electrophoresis. The direct inhibitory effects of Meisoindigo and NATURA were also measured by reaction of immuno-purified specific enzyme from untreated cells directly with the Meisoindigo or NATURA.
as §2, with “HUVEC” for “Assay for cyclin dependent kinase activity: HUVEC”, “either cdk4/6” for “cdk2, cdk4/6, PKC, ERK2”, “[γ-^32P]-ATP.” for “[γ-^32P]-ATP (2.5 μCi/10 μM).”, “counting.” for “counting or by SDS-polyacrylaimde gel electrophoresis. The direct inhibitory effects of Meisoindigo and NATURA were also measured by reaction of immuno-purified specific enzyme from untreated cells directly with the Meisoindigo or NATURA.”

[9] = Acute toxicity, median lethal dose LD50; details: for DFP (Frequency of Death): mice, oral, two weeks
Protocol: The animals were given Meisoindigo suspension orally at dosage of 0, 1.85, 2.60, 3.60, 5.10, 7.14, and 10.00 g/kg respectively. The animals were tested for two weeks, and the LD50 was measured using modified Bliss method as follows.
LD50 was calculated using following equation: LD50=log^−1 [Xm−i(ΣDFP−0.5)]
Here, Xm is the maximal frequency of death, Xm=I in this case; i is the distance of group. It is determined by following equation, in this case r=1.4 i=log 1/r=0.146

[10] = Walker 256, rat, oral, Indirubin 100 × 9, Meisoindigo 106 × 9 mg/kgxd
[11] = 15 μM, LNCaP cells exposed 24 h

SMILES | IC50 [1] [µM] | cyclin D1 protein [2] | expression of cyclin D1 [2] | IC50 [4] [µM] | IC50 [5] [µM] | IC50 [7] [µM] | inhibition of D cyclins mediated cdk4/6 enzyme activity ([8]; 5.0 μM, LNCaP cells, 24 h) | inhibition of D cyclins mediated cdk4/6 enzyme activity [8, 11] | LD50 at 2 weeks ([9]; Kuan Ming, mouse, in vivo, po) [mg/kg] | further results
CN1C(=O)/C(=C2/C(=O)Nc3ccccc32)c2ccccc21 [Meisoindigo] | 2.15 to 8.31 | almost completely lost | strongly inhibit | 8.31 ± 0.93 | 3.26 ± 0.51 | 5.76 ± 0.72 | Over 56% | complete inhibition | 3900 ± 800 | Inhibition (%) [3, 10]: 71.6 ± 3.1%; Tumor Size X ± SD [3, 10]: 2.10 ± 0.17; IC50 ([6]; SK-BR-3, 72 h): 2.17 ± 0.17 µM; Unit of DF ([9]; Dose 1.86 g/kg): 2.674; [DF]^2P^2 ([9]; Dose 1.86 g/kg): 0; LD50 ([9]; Kuan Ming, mouse, in vivo, po, 2 weeks): 3900 ± 800 mg/kg; DFP (Frequency of Death) ([9]; Dose 1.86 g/kg): 0; DFP (Frequency of Death) ([9]; Dose 2.60 g/kg): 0.20; DFP (Frequency of Death) ([9]; Dose 3.60 g/kg): 0.60; DFP (Frequency of Death) ([9]; Dose 5.10 g/kg): 0.70; DFP (Frequency of Death) ([9]; Dose 7.14 g/kg): 0.80; DFP (Frequency of Death) ([9]; Dose 10.00 g/kg): 1.00
CC(=O)OC1COC(N2C(=O)/C(=C3/C(=O)Nc4ccccc43)c3ccccc32)C(OC(C)=O)C1OC(C)=O [NATURA, 1-(β-D-O-Triacetyl-xylopyranosyl)-isoindigo] | 1.64 to 6.92 | almost completely lost | strongly inhibit | 6.92 ± 0.73 | 2.41 ± 0.39 | 4.31 ± 0.59 | Over 56% | complete inhibition | 7330 ± 1150 | Percent of Inhibition against Walker 256 ([3]; Wistar rats, 0.384 mM/kg orally for 10 days): 77%; Percent of Inhibition against Walker 256 ([3]; Wistar rats, 0.384 mM/kg orally for 10 days; listed as Xyl-Ac*NATURA)): 77.5%; IC50 ([6]; SK-BR-3, MTT, 72 h exposure): 1.71 ± 0.14 µM; activity on cdk4 compared with cdk2 ([8]; 5 μM, LNCaP cells, 24 hours): slight stronger activity; inhibitory affect on cdk4/6 activity compared with same concentration of meisoindigo ([8]; 5.0 μm, FIG. 7): greater inhibitory affect
